Consider 23 compounds from US12421209B2, “Compounds” (Hoffmann-La Roche Inc., priority 2021, dated 2025).

pIC50: −log10 of the molar value.

Experiment [1] addresses T1, NLRP3 (Homo sapiens, UniProt Q96P20). Briefly: THP-1 cells pyroptosis assay (LPS priming, nigericin, resazurin read-out). Particulars: 1.0 μg/ml LPS, 5 μM nigericin. The arrangement: Seed THP-1 cells (25,000 cells/well) containing 1.0 μg/ml LPS; host or cells: THP-1 cells. In kind it is cell-based. How it is done: THP-1 cells (ATCC #TIB-202) were grown in RPMI containing L-glutamine (Gibco #11835) supplemented with 1 mM sodium pyruvate (Sigma #S8636) and penicillin (100 units/ml)/streptomycin (0.1 mg/ml) (Sigma #P4333) in 10% Fetal Bovine Serum (FBS) (Sigma #F0804). The cells were routinely passaged and grown to confluency (˜10^6 cells/ml). On the day of the experiment, THP-1 cells were harvested and resuspended into RPMI medium (without FBS). The cells were then counted and viability (>90%) checked by Trypan blue (Sigma #T8154). Appropriate dilutions were made to give a concentration of 625,000 cells/ml. To this diluted cell solution was added LPS (Sigma #L4524) to give a lug/ml Final Assay Concentration (FAC). 40 μl of the final preparation was aliquoted into each well of a 96-well plate. The plate thus prepared was used for compound screening.
The following method step-by-step assay was followed for compound screening. • 1. Seed THP-1 cells (25,000 cells/well) containing 1.0 μg/ml LPS in 40 μl of RPMI medium (without FBS) in 96-well, black walled, clear bottom cell culture plates coated with poly-D-lysine (VWR #734-0317) • 2. Add 5 μl compound (8 points half-log dilution, with 10 μM top dose) or vehicle (DMSO 0.1% FAC) to the appropriate wells • 3. Incubate for 3 hours at 37° C., 5% CO2 • 4. Add 5 μl nigericin (Sigma #N7143) (FAC 5 μM) to all wells • 5. Incubate for 1 hr at 37° C., 5% CO2 • 6. At the end of the incubation period, spin plates at 300×g for 3 mins and remove supernatant • 7. Then add 50 μl of resazurin (Sigma #R7017) (FAC 100 μM resazurin in RPMI medium without FBS) and incubate plates for a further 1-2 hours at 37° C. and 5% CO2 • 8. Plates were read in an Envision reader at Ex 560 nm and Em 590 nm • 9. IC50 data is fitted to a non-linear regression equation (log inhibitor vs response-variable slope 4-parameters)
On the technique in general: Alamar Blue is a resazurin reagent that responds to reducing activity.

Experiment [2] concerns the target T1, NLRP3. The experiment in a line: Human whole blood IL-1β release assay (LPS, nigericin, AlphaLisa). It counts as cell-based. The arrangement: Human whole blood in Li-heparin tubes was obtained from healthy donors; from tissue; host or cells: human whole blood from healthy donors. Particulars: 10 μM nigericin. How it is done: For systemic delivery, the ability to inhibit NLRP3 when the compounds are present within the bloodstream is of great importance. For this reason, the NLRP3 inhibitory activity of a number of compounds in human whole blood was investigated in accordance with the following protocol.
Human whole blood in Li-heparin tubes was obtained from healthy donors from a volunteer donor panel. • 1. Plate out 80 μl of whole blood containing lug/ml of LPS in 96-well, clear bottom cell culture plate (Corning #3585) • 2. Add 10 μl compound (8 points half-log dilution with 10 μM top dose) or vehicle (DMSO 0.1% FAC) to the appropriate wells • 3. Incubate for 3 hours at 37° C., 5% CO2 • 4. Add 10 μl nigericin (Sigma #N7143) (10 μM FAC) to all wells • 5. Incubate for 1 hr at 37° C., 5% CO2 • 6. At the end of the incubation period, spin plates at 300×g for 5 mins to pellet cells and remove 20 μl of supernatant and add to 96-well v-bottom plates for IL-1β analysis (note: these plates containing the supernatants can be stored at −80° C. to be analysed at a later date) • 7. IL-1β was measured according to the manufacturer protocol (Perkin Elmer-AlphaLisa IL-1 Kit AL220F-5000) • 8. IC50 data is fitted to a non-linear regression equation (log inhibitor vs response-variable slope 4-parameters)
(In general: Bead proximity is the source of the signal in Alpha formats.)

T1 sequence (Q96P20 whole entry): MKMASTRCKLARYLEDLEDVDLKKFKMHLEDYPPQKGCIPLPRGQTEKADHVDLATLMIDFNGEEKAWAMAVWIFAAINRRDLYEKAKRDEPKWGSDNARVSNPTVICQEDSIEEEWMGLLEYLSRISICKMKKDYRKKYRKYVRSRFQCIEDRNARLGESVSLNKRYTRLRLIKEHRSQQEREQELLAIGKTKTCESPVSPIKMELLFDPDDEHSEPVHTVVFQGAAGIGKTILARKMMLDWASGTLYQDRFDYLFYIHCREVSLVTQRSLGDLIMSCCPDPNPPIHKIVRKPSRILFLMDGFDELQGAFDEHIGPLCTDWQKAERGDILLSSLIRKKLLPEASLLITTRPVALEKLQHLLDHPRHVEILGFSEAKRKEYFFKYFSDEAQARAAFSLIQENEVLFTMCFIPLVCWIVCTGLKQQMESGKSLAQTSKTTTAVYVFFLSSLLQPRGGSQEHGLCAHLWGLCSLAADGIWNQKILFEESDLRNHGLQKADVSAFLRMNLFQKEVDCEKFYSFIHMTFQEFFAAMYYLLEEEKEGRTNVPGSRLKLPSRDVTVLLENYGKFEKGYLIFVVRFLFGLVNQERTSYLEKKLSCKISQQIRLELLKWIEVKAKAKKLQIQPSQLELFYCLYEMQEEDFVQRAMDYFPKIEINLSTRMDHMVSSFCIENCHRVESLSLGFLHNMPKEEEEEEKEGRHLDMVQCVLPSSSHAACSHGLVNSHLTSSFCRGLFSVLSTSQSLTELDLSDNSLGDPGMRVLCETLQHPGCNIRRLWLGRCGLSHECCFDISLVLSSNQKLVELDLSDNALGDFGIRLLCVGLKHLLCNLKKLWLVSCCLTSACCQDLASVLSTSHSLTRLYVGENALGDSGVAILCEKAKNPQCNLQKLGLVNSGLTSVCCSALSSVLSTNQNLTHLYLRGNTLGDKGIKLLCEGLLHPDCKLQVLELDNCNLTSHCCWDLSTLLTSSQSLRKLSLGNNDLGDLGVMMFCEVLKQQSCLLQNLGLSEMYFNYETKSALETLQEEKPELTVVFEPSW

Take `Cc1nc(N[C@H]2CCCN3CCC[C@H]23)nnc1-c1ccc(C(F)(F)F)cc1O` (racemic) [Example 26, 2-[5-Methyl-3-[[rac-(8S,8aR)-1,2,3,5,6,7,8,8a-octahydroindolizin-8-yl]amino]-1,2,4-triazin-6-yl]-5-(trifluoromethyl) phenol]: the pIC50 (as a rule, the negative decadic logarithm of the IC50, by convention in mol/L) on NLRP3 [1] was 8.29.
Still for that read-out and setting: the value for `Cc1nc(N[C@H]2CCCN3CCC[C@@H]23)nnc1-c1ccc(C(F)(F)F)cc1O` (racemic) [Example 27, 2-[5-Methyl-3-[[rac-(8S,8aS)-1,2,3,5,6,7,8,8a-octahydroindolizin-8-yl]amino]-1,2,4-triazin-6-yl]-5-(trifluoromethyl) phenol] was 7.68.
In the case of `Cc1nc(N[C@@H]2CCCN(C(C)(C)C)C2)nnc1-c1ccc(C(F)(F)F)cc1O` (single isomer, unassigned) [Example 10, 2-[3-[[(3R or 3S)-1-tert-Butyl-3-piperidyl]amino]-5-methyl-1,2,4-triazin-6-yl]-5-(trifluoromethyl) phenol], the pIC50 on NLRP3 [1] was 6.36.
For the compound `Cc1nc(NC2CCCN(C(C)(C)C)C2)nnc1-c1ccc(C(F)(F)F)cc1O` (single isomer, unassigned) [Example 11, 2-[3-[[(3S or 3R)-1-tert-Butyl-3-piperidyl]amino]-5-methyl-1,2,4-triazin-6-yl]-5-(trifluoromethyl) phenol], the pIC50 was 7.81 against NLRP3 [2] and 8.66 at NLRP3 [1].
As to `Cc1nc(NC2CCCN3CCCC23)nnc1-c1ccc(C(F)(F)F)cc1O` (single isomer, unassigned) [Example 28], the pIC50 against NLRP3 [2] is 7.73; at NLRP3 [1], 8.62.
As for `Cc1nc(NC2CCCN3CCCC23)nnc1-c1ccc(C(F)(F)F)cc1O` (single isomer, unassigned) [Example 29], the negative-log IC50 (pIC50) at NLRP3 [1] was 6.79.
As for `Cc1nc(NC2CCC3CCCN3C2)nnc1-c1ccc(C(F)(F)F)cc1O` (single isomer, unassigned) [Example 31, 2-[3-[[(6S or 6R,8aS or 8aR)-1,2,3,5,6,7,8,8a-octahydroindolizin-6-yl]amino]-5-methyl-1,2,4-triazin-6-yl]-5-(trifluoromethyl) phenol], the pIC50 at NLRP3 [1] was below 6.00.
On to `Cc1nc(NC2CCC3CCCN3C2)nnc1-c1ccc(C(F)(F)F)cc1O` (single isomer, unassigned) [Example 32, 2-[3-[[(6R or 6S,8aS or 8aR)-1,2,3,5,6,7,8,8a-octahydroindolizin-6-yl]amino]-5-methyl-1,2,4-triazin-6-yl]-5-(trifluoromethyl) phenol], for which the pIC50 is 7.44 on NLRP3 [2] and 7.79 at NLRP3 [1].
`Cc1nc(NC2CCC3CCCN3C2)nnc1-c1ccc(C(F)(F)F)cc1O` (single isomer, unassigned) [Example 33, 2-[3-[[(6S or 6R,8aR or 8aS)-1,2,3,5,6,7,8,8a-octahydroindolizin-6-yl]amino]-5-methyl-1,2,4-triazin-6-yl]-5-(trifluoromethyl) phenol]: the negative logarithm of the IC50 (pIC50) at NLRP3 [2] was 6.52; on NLRP3 [1], 7.34.
Consider `Cc1nc(NC2CCC3CCCN3C2)nnc1-c1ccc(C(F)(F)F)cc1O` (single isomer, unassigned) [Example 34, 2-[3-[[(6R or 6S, 8aR or 8aS)-1,2,3,5,6,7,8,8a-octahydroindolizin-6-yl]amino]-5-methyl-1,2,4-triazin-6-yl]-5-(trifluoromethyl) phenol], for which the pIC50 at NLRP3 [1] was 6.68.
Turning to `CCN1CCC[C@@H](Nc2ncc(-c3c(C)cc(C(F)(F)F)cc3O)nn2)C1` [Example 1, 2-[3-[[(3R)-1-Ethyl-3-piperidyl]amino]-1,2,4-triazin-6-yl]-3-methyl-5-(trifluoromethyl) phenol; 2,2,2-trifluoroacetic acid], the pIC50 against NLRP3 [2] was 7.41; on NLRP3 [1], 8.05.
Regarding `Cc1nc(N[C@H]2C[C@@](C)(O)C2)nnc1-c1ccc(C(F)(F)F)cc1O` [Example 3, 2-[3-[(3-Hydroxy-3-methyl-cyclobutyl)amino]-5-methyl-1,2,4-triazin-6-yl]-5-(trifluoromethyl) phenol], the values for the pIC50 against NLRP3 [2] and at NLRP3 [1] were 6.72 and 6.97, respectively.
The corresponding values for `CCN1CCC[C@@H](Nc2nnc(-c3ccc(Cl)cc3O)c(C)n2)C1` [Example 5, 5-Chloro-2-[3-[[(3R)-1-ethyl-3-piperidyl]amino]-5-methyl-1,2,4-triazin-6-yl]phenol] are 8.42 and 8.89.
Regarding `CCN1CCC[C@@H](Nc2nnc(-c3ccc(F)cc3O)c(C)n2)C1` [Example 6, 2-[3-[[(3R)-1-Ethyl-3-piperidyl]amino]-5-methyl-1,2,4-triazin-6-yl]-5-fluoro-phenol], the pIC50 is 7.84 at NLRP3 [2] and 7.81 at NLRP3 [1].
The corresponding values for `CCN1CCC[C@@H](Nc2nnc(-c3ccc4c(c3O)CC4)c(C)n2)C1` [Example 8, 3-[3-[[(3R)-1-Ethyl-3-piperidyl]amino]-5-methyl-1,2,4-triazin-6-yl]bicyclo[4.2.0]octa-1(6),2,4-trien-2-ol] are 8.37 and 9.40.
On the same counts, the results for `CCN1CCC[C@@H](Nc2nnc(-c3c(O)cc(C(F)(F)F)cc3F)c(C)n2)C1` [Example 9, 2-[3-[[(3R)-1-Ethyl-3-piperidyl]amino]-5-methyl-1,2,4-triazin-6-yl]-3-fluoro-5-(trifluoromethyl) phenol] are 7.56 and 8.46.
With `CCN1CCC[C@@H](Nc2nnc(-c3ccc(C#N)cc3O)c(C)n2)C1` [Example 12, 4-[3-[[(3R)-1-Ethyl-3-piperidyl]amino]-5-methyl-1,2,4-triazin-6-yl]-3-hydroxy-benzonitrile], the pIC50 against NLRP3 [2] was 7.62; at NLRP3 [1], 7.69.
Turning to `Cc1nc(N[C@@H]2C[C@H](F)CN(C)C2)nnc1-c1ccc(C(F)(F)F)cc1O` [Example 13, 2-[3-[[(3R,5S)-5-Fluoro-1-methyl-3-piperidyl]amino]-5-methyl-1,2,4-triazin-6-yl]-5-(trifluoromethyl) phenol], the pIC50 at NLRP3 [1] is 7.11.
Regarding `Cc1nc(NC2CCCn3ccnc32)nnc1-c1ccc(C(F)(F)F)cc1O` (stereo not shown) [Example 14, 2-[5-Methyl-3-(5,6,7,8-tetrahydroimidazo[1,2-a]pyridin-8-ylamino)-1,2,4-triazin-6-yl]-5-(trifluoromethyl) phenol], on NLRP3 [1], the pIC50 is 6.46.
Turning to `Cc1nc(N[C@@H]2CCCN(C)C2)nnc1-c1ccc(F)cc1O` [Example 15, 5-Fluoro-2-[5-methyl-3-[[(3R)-1-methyl-3-piperidyl]amino]-1,2,4-triazin-6-yl]phenol], the pIC50 was 7.82 on NLRP3 [2] and 7.74 on NLRP3 [1].
The corresponding values for `Cc1nc(N[C@@H]2CCCN(C)C2)nnc1-c1ccc(Cl)cc1O` [Example 16, 5-Chloro-2-[5-methyl-3-[[(3R)-1-methyl-3-piperidyl]amino]-1,2,4-triazin-6-yl]phenol] are 7.88 and 8.82.
`Cc1nc(N[C@@H]2CCCNC2)nnc1-c1ccc(C(F)(F)F)cc1O` [Example 17, 2-[5-Methyl-3-[[(3R)-3-piperidyl]amino]-1,2,4-triazin-6-yl]-5-(trifluoromethyl) phenol]: the results for the negative logarithm of the IC50 (pIC50) against NLRP3 [2] and on NLRP3 [1] were 7.33 and 7.87, respectively.
Take `CCN1CCC[C@@H](Nc2nnc(-c3ccc(C(F)(F)F)cc3O)c(C(F)(F)F)n2)C1` [Example 30, 2-[3-[[(3R)-1-Ethyl-3-piperidyl]amino]-5-(trifluoromethyl)-1,2,4-triazin-6-yl]-5-(trifluoromethyl) phenol; 2,2,2-trifluoroacetic acid]: the pIC50 on NLRP3 [1] is 6.95.
